Laboratory results published in patent US9212146B2, “Substituted pyridazinones for the treatment of tumors” (SHANGHAI INSTITUTE OF MATERIA MEDICA, CHINESE ACADEMY OF …, priority 2008, dated 2015).
pIC50: −log10 of the molar value.

Key:
[1] = tested on: human hepatoma cell line Bel-7402; test: SRB proliferation assay, Bel-7402; assay type: cell-based; settings: Homo sapiens, Bel-7402, 72 h, BEL-7402 cultivated in vitro, given as bounds, read-out: The Inhibition Activities for Human Liver Cancer Cells BEL-7402 (IC50)
Method: (§1) Protocol: the antineoplasmic activities in vitro of the compounds were assayed by a Sulforhodamine B (SRB) protocol. Tumor cells were cultivated at 37 under 5% CO2 in a RPMI 1640 medium or a DMEM medium (Gibco) containing 10% fetal bovine serum. Tumor cells were inoculated on a 96-well plate with a concentration of 0.4-1.0×10^4 cells per well according to the cell types. 24 hours later, the target compounds diluted 10 times were added, each compound having at least 5 concentrations. After treated by the compounds for 72 hours, the culture media were discarded, and the cells were fixed by 10% cold trichloroacetic acid, and then stained by Sulforhodamine B (SRB) solution. The uncombined SRB was washed off, and the SRB combined with protein was dissolved with Tris. OD values were recorded at 515 nm on an ELISA Reader, and the cell growth inhibition rate was calculated according to following equation: Inhibition rate=(ODcontrol−ODexperimental)/ODcontrol×100%
IC50 (50% inhibitory concentration) was calculated by using Logit method based on the inhibition rates at various concentration, and the results are shown in tables 1 and 2.
The following cell lines were used: human hepatocarcinoma cell line […]; ovarian cancer cell line SK-OV-3; human breast cancer cell line MDA-MB-231; human renal carcinoma cell line A498; colon adenocarcinoma cell line HT-29; non-small cell lung cancer cell line NCI-H460; lung adenocarcinoma cell line A549; human colon cancer cell line SW-620; human hepatoma cell line Bel-7402; human breast carcinoma cell line SK-BR-3; and human umbilical vein endothelial cells (HUVEC).

[2] = tested on: human liver cancer cells Bel-7402 transplanted tumor; assay type: in vivo
From the text: Name and lot number: YHHU-744, a white powder, lot No.: No. c001471-106; YHHU-755, a white powder, lot No.: No. c001471-102; YHHU-756, a white powder, lot No.: No. c00147-106; YHHU-759, a white powder, lot No.: No. c001471-102; YHHU-776, a white powder, lot No.: No. c001471-107. Sorafenib was used as a positive control.
Formulation: YHHU-744, YHHU-755, YHHU-756, YHHU-759, YHHU-776 and the positive control were each diluted with 0.1% Tween-80 and distilled water to a desired concentration.
BALB/cA nude mice, 6-7 weeks old, ♀, were purchased from Shanghai SLAC Laboratory Animal Co. LTD. Certificate No.: SCXK (Shanghai) 2007-0005. Habitat: SPF level.
Human liver cancer cells Bel-7402 were inoculated on nude mice subcutaneously. After the tumor grew up to 300-450 mm^3, animals were grouped randomly (d0). The tumor volume was measured 2-3 times each week and the weights of mice were recorded. The tumor volume was calculated according to as the following equation. V=½×a×b^2 wherein, a and b are length and width, respectively. […]

[3] = tested on: Bel-7402 liver cancer cells; test: SRB assay Example 17, Bel-7402; assay type: cell-based; settings: Homo sapiens, drug action 72 h
Method: as §1, with “diluted 3” for “diluted 10”, “least 9” for “least 5”
(§2) IC50 (50% inhibitory concentration) was calculated by using Logit method based on the inhibition rates at various concentration, and the results are shown in table 4.
(§3) Proliferation of turner cells was assayed by SRB protocol, drug action 72 h.

[4] = tested on: SMMC-7721 liver cancer cells; test: SRB assay Example 17, SMMC-7721; assay type: cell-based; settings: Homo sapiens, 72 h
Method: as §1, with “diluted 3” for “diluted 10”, “least 9” for “least 5”
as §2, §3

[5] = tested on: Bel-7404 liver cancer cells; test: SRB assay Example 17, Bel-7404; assay type: cell-based; settings: Homo sapiens, 72 h
Method: as §1, with “diluted 3” for “diluted 10”, “least 9” for “least 5”
as §2, §3

HL-7702 liver cell = test: SRB assay Example 17, HL-7702; assay type: cell-based; settings: Homo sapiens, L02, 72 h
Method: as §1, with “diluted 3” for “diluted 10”, “least 9” for “least 5”
as §2, §3

[6] = tested on: QGY-7703 liver cancer cells; test: SRB assay Example 17, QGY-7703; assay type: cell-based; settings: Homo sapiens, 72 h
Method: as §1, with “diluted 3” for “diluted 10”, “least 9” for “least 5”
as §2, §3

[7] = tested on: QGY-7701 liver cancer cells; test: SRB assay Example 17, QGY-7701; assay type: cell-based; settings: Homo sapiens, QGY7701, 72 h
Method: as §1, with “diluted 3” for “diluted 10”, “least 9” for “least 5”
as §2, §3

[8] = tested on: QSG-7701 liver cancer cells; test: SRB assay Example 17, QSG-7701; assay type: cell-based; settings: Homo sapiens, QSG7701, 72 h
Method: as §1, with “diluted 3” for “diluted 10”, “least 9” for “least 5”
as §2, §3

Chang liver liver cell = test: SRB assay Example 17, Chang liver; assay type: cell-based; settings: Homo sapiens, 72 h
Method: as §1, with “diluted 3” for “diluted 10”, “least 9” for “least 5”
as §2, §3

[9] = tested on: SK-HEP-1 liver cancer cells; test: SRB assay Example 17, SK-HEP-1; assay type: cell-based; settings: Homo sapiens, SK-HEP1, 72 h
Method: as §1, with “diluted 3” for “diluted 10”, “least 9” for “least 5”
as §2, §3

HepG2 liver cancer cells = test: SRB assay Example 17, HepG2; assay type: cell-based; settings: Homo sapiens, 72 h
Method: as §1, with “diluted 3” for “diluted 10”, “least 9” for “least 5”
as §2, §3

Hep3B liver cancer cells = test: SRB assay Example 17, Hep3B; assay type: cell-based; settings: Homo sapiens, 72 h
Method: as §1, with “diluted 3” for “diluted 10”, “least 9” for “least 5”
as §2, §3

[10] = tested on: HCCC-9810 liver cancer cells; test: SRB assay Example 17, HCCC-9810; assay type: cell-based; settings: Homo sapiens, HCCC9810, 72 h
Method: as §1, with “diluted 3” for “diluted 10”, “least 9” for “least 5”
as §2, §3

HUH-7 liver cancer cells = test: SRB assay Example 17, HUH-7; assay type: cell-based; settings: Homo sapiens, 72 h
Method: as §1, with “diluted 3” for “diluted 10”, “least 9” for “least 5”
as §2, §3

[11] = tested on: HUVEC normal human umbilical vein endothelial cells; test: SRB assay Example 17, HUVEC (20% FBS); assay type: cell-based; settings: 72 h
Method: as §1, with “diluted 3” for “diluted 10”, “least 9” for “least 5”
as §2, §3

3AO ovarian cancer cells = test: SRB assay Example 17, 3AO; assay type: cell-based; settings: Homo sapiens, 72 h
Method: as §1, with “diluted 3” for “diluted 10”, “least 9” for “least 5”
as §2, §3

[12] = tested on: A2780 ovarian cancer cells; test: SRB assay Example 17, A2780; assay type: cell-based; settings: Homo sapiens, 72 h
Method: as §1, with “diluted 3” for “diluted 10”, “least 9” for “least 5”
as §2, §3

[13] = tested on: HeLa cervical carcinoma cells; test: SRB assay Example 17, HeLa; assay type: cell-based; settings: Homo sapiens, 72 h
Method: as §1, with “diluted 3” for “diluted 10”, “least 9” for “least 5”
as §2, §3

H460 lung cancer cells = test: SRB assay Example 17, H460; assay type: cell-based; settings: Homo sapiens, NCI-H460, 72 h
Method: as §1, with “diluted 3” for “diluted 10”, “least 9” for “least 5”
as §2, §3

A549 lung cancer cells = test: SRB assay Example 17, A549; assay type: cell-based; settings: Homo sapiens, 72 h
Method: as §1, with “diluted 3” for “diluted 10”, “least 9” for “least 5”
as §2, §3

[14] = tested on: SK-BR-3 breast carcinoma cells; test: SRB assay Example 17, SK-BR-3; assay type: cell-based; settings: Homo sapiens, 72 h
Method: as §1, with “diluted 3” for “diluted 10”, “least 9” for “least 5”
as §2, §3

[15] = tested on: MCF-7 breast carcinoma cells; test: SRB assay Example 17, MCF-7; assay type: cell-based; settings: Homo sapiens, MCF7, 72 h
Method: as §1, with “diluted 3” for “diluted 10”, “least 9” for “least 5”
as §2, §3

[16] = tested on: CNE nasopharyngeal carcinoma cells; test: SRB assay Example 17, CNE; assay type: cell-based; settings: Homo sapiens, 72 h
Method: as §1, with “diluted 3” for “diluted 10”, “least 9” for “least 5”
as §2, §3

[17] = tested on: human liver cancer cells SMMC-7721 transplanted tumor; test: SMMC-7721 transplanted tumor on nude mice; assay type: in vivo; settings: intragastrically once a day for 10 days
Method: Experimental procedure: BALB/cA nude mice, 6-7 weeks old, ♀, were purchased from Shanghai SLAC Laboratory Animal Co. LTD. Certificate No.: SCXK (Shanghai) 2007-0005. Habitat: SPF level. The compounds were diluted with 0.5% CMC containing 0.1% Tween-80 to a desired concentration. Human liver cancer cells SMMC-7721 were inoculated on nude mice subcutaneously. After the tumor grew up to 100-200 mm^3, animals were grouped randomly (d0). Mice were consecutively administered with compounds intragastrically once a day for 10 days. The tumor volume was measured 2-3 times each week and the weights of mice were recorded. The tumor volume (V) was calculated according to the following equation: V=½×a×b^2, wherein, a and b are length and width, respectively.

[18] = 100 mg/kg, PO, QDx11, Bel-7402 on nude mice

With `CN1CCN(c2ccc(-c3ccc(=O)[nH]n3)cc2C(F)(F)F)CC1` [YHHU-756] the pIC50 [1] was greater than 8.00, the “Quantity of Animals Whose Tumors Vanished” value ([2]; 100 mg/kg, PO, QDx11, 5 animals per group) was 5 and the “Inhibition Rate (%)” value [2, 18] was 100%. For the same compound, the “Tumor Volume (mm^3)” value [2, 18] was 294.6 mm^3, the “tumors vanished (animals/group)” value ([2]; at the 11th day, intragastrically once a day for 11 days) was 5/5 and the recrudescence of tumors ([2]; at the end of the experiment (17th day)) was “no recrudescence was observed”. The “toxicity / survivability of mice” value ([2]; intragastrically once a day for 11 days, nude mice) was “no significant toxicity was observed”, the pIC50 [3] was 7.70 and the pIC50 [4] was 8.00. It also gave a pIC50 [5] of 6.39, a pIC50 (HL-7702 liver cell) of 7.52 and a pIC50 [6] of 7.70. The pIC50 [7] was 7.70, the pIC50 [8] was 7.70 and the pIC50 (Chang liver liver cell) was 7.70. For the same compound, the pIC50 [9] was less than 5.00, the pIC50 (HepG2 liver cancer cells) was less than 5.00 and the pIC50 (Hep3B liver cancer cells) was less than 5.00. For the same compound, the pIC50 [10] was less than 5.00, the pIC50 (HUH-7 liver cancer cells) was less than 5.00 and the pIC50 [11] was 7.30. The pIC50 (3AO ovarian cancer cells) was 7.70, the pIC50 [12] was 7.52 and the pIC50 [13] was 7.70. For the same compound, the pIC50 (H460 lung cancer cells) was 4.89, the pIC50 (A549 lung cancer cells) was 4.88 and the pIC50 [14] was 5.15. For the same compound, the pIC50 [15] was 4.92, the pIC50 [16] was 8.00 and the “survivability / weight loss of mice bearing cancer” value [17] was “no symptoms such as weight loss was observed”. The “growth of SMMC-7721 transplanted tumor” value ([17]; subcutaneous tumor on nude mice) was “caused part of the tumors vanished”.
